Assay results: US20240018161A1, “MODULATORS OF CYSTIC FIBROSIS TRANSMEMBRANE CONDUCTANCE REGULATOR” (VERTEX PHARMACEUTICALS INCORPORATED, priority 2020, published 2024)

Target: T1, CFTR-mediated short-circuit current in F508del/MF-HBE cells (Homo sapiens, UniProt P13569, DEL508-508)
T1 construct: human bronchial epithelial (HBE) cells derived from CF subjects; endogenous in cells; host or cells: primary human bronchial epithelial cells from CF subjects (F508del/MF-HBE)
Assay: HBE2 assay: Ussing chamber assay of CFTR-mediated short-circuit currents
Assay type: cell-based
Method: 1. Ussing Chamber Assay of CFTR-Mediated Short-Circuit Currents
Ussing chamber experiments were performed using human bronchial epithelial (HBE) cells derived from CF subjects heterozygous for F508del and a minimal function CFTR mutation (F508del/MF-HBE) and cultured as previously described (Neuberger T, Burton B, Clark H, Van Goor F Methods Mol Biol 2011:741:39-54). After four days the apical media was removed, and the cells were grown at an air liquid interface for >14 days prior to use.
To isolate the CFTR-mediated short-circuit (ISC) current, F508del/MF-HBE grown on Costar® Snapwell™ cell culture inserts were mounted in an Ussing chamber and the transepithelial ISC was measured under voltage-clamp recording conditions (Vhold=0 mV) at 37° C. The basolateral solution contained (in mM) 145 NaCl, 0.83 K2HPO4, 3.3 KH2PO4, 1.2 MgCl2, 1.2 CaCl2, 10 Glucose, 10 HEPES (pH adjusted to 7.4 with NaOH) and the apical solution contained (in mM) 145 NaGluconate, 1.2 MgCl2, 1.2 CaCl2, 10 glucose, 10 HEPES (pH adjusted to 7.4 with NaOH) and 30 μM amiloride to block the epithelial sodium channel. Forskolin (20 μM) was added to the apical surface to activate CFTR, followed by apical addition of a CFTR inhibitor cocktail consisting of BPO, GlyH-101, and CFTR inhibitor 172 (each at 20 μM final assay concentration) to specifically isolate CFTR currents. The CFTR-mediated ISC (μA/cm^2) for each condition was determined from the peak forskolin response to the steady-state current following inhibition.
2. Identification of Corrector Compounds
The activity of the CFTR corrector compounds on the CFTR-mediated ISC was determined in Ussing chamber studies as described above. The F508del/MF-HBE cell cultures were either incubated with the corrector compounds at a range of concentrations in combination with 44 nM (6R,12R)-17-amino-12-methyl-6,15-bis(trifluoromethyl)-13,19-dioxa-3,4,18-triazatricyclo[12.3.1.12,5]nonadeca-1(18),2,4,14,16-pentaen-6-ol or were incubated with the corrector compounds at a single fixed concentration of 1 and 3 μM in combination with 44 nM (6R,12R)-17-amino-12-methyl-6,15-bis(trifluoromethyl)-13,19-dioxa-3,4,18-triazatricyclo[12.3.1.12,5]nonadeca-1(18),2,4,14,16-pentaen-6-ol for 18-24 hours at 37° C. and in the presence of […]. The concentration of corrector compounds with 44 nM (6R,12R)-17-amino-12-methyl-6,15-bis(trifluoromethyl)-13,19-dioxa-3,4,18-triazatricyclo[12.3.1.12,5]nonadeca-1(18),2,4,14,16-pentaen-6-ol during the 18-24 hours incubations was kept constant throughout the Ussing chamber measurement of the CFTR-mediated ISC to ensure compounds were present throughout the entire experiment.

T1 sequence (P13569 with tags, fused parts or gaps DEL508-508): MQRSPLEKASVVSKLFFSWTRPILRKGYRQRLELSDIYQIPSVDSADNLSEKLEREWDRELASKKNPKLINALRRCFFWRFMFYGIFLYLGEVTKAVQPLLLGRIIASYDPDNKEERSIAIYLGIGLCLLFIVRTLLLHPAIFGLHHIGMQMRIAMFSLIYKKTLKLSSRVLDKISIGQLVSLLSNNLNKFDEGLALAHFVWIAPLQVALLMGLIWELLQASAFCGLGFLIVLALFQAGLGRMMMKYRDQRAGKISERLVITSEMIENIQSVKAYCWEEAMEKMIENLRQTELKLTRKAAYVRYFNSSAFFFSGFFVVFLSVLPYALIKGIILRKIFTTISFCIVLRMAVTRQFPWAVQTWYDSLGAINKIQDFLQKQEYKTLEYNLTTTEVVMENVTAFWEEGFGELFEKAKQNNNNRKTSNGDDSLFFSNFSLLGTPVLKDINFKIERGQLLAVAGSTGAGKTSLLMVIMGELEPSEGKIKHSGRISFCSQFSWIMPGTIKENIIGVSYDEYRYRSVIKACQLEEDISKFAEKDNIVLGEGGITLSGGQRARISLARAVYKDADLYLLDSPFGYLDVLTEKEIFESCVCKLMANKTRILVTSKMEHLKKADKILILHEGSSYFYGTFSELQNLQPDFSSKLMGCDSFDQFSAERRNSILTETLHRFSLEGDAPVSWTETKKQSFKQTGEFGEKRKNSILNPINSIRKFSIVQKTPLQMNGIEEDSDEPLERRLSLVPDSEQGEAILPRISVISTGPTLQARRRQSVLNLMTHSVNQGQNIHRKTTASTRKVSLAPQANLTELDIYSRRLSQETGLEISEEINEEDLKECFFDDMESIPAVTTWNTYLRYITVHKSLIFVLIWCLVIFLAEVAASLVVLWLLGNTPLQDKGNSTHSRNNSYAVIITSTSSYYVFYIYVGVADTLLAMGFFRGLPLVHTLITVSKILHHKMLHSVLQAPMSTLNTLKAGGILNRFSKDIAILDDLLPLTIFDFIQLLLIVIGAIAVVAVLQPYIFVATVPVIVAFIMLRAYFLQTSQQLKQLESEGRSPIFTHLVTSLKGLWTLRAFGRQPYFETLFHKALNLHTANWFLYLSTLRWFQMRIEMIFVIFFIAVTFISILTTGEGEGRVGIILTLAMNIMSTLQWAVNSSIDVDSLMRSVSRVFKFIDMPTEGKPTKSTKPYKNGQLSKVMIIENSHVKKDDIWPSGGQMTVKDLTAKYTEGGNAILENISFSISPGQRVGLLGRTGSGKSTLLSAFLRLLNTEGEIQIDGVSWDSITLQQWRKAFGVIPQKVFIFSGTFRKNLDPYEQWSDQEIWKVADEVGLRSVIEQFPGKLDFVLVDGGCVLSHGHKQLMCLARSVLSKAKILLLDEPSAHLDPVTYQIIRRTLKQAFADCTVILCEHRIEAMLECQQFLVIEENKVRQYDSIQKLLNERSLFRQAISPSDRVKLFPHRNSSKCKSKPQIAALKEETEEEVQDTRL

| SMILES | HBE2 Activity at 3 μM (%) |
| --- | --- |
| Cc1cccc(C)c1-c1cc2nc(n1)NS(=O)(=O)c1cccc(c1)C(=O)N1[C@@H](c3ncc(OC(C)C)cn3)CCC(C)(C)[C@H]1CO2 (single isomer, unassigned) [Compound 386, 13-(2,6-dimethylphenyl)-4-(5-isopropoxypyrimidin-2-yl)-7,7-dimethyl-17,17-dioxo-10-oxa-17λ^6-thia-3,14,16,23-tetrazatetracyclo[16.3.1.111,15.03,8]tricosa-1(21),11,13,15(23),18(22),19-hexaen-2-one] | + (+ is <30+) |
| Cc1cccc(C)c1-c1cc2nc(n1)NS(=O)(=O)c1cccc(c1)C(=O)N1[C@@H](c3ncc(OC(C)C)cn3)CCC(C)(C)[C@H]1CO2 (single isomer, unassigned) [Compound 387, 13-(2,6-Dimethylphenyl)-4-(5-isopropoxypyrimidin-2-yl)-7,7-dimethyl-17,17-dioxo-10-oxa-17λ^6-thia-3,14,16,23-tetrazatetracyclo[16.3.1.111,15.03,8]tricosa-1(21),11,13,15(23),18(22),19-hexaen-2-one] | +++ (+++ is >60%) |
| Cc1cccc(C)c1-c1cc2nc(n1)NS(=O)(=O)c1cccc(c1)C(=O)N1[C@@H](c3ncc(OC(C)C)cn3)CCC[C@@H](CC(C)C)[C@H]1CO2 (single isomer, unassigned) [Compound 394, 14-(2,6-Dimethylphenyl)-8-isobutyl-4-(5-isopropoxypyrimidin-2-yl)-18,18-dioxo-11-oxa-18λ^6-thia-3,15,17,24-tetrazatetracyclo[17.3.1.112,16.03,9]tetracosa-1(22),12,14,16(24),19(23),20-hexaen-2-one] | +++ (+++ is >60%) |

More lines, now with the values ahead:

| HBE2 Activity at 3 μM (%) | SMILES |
| --- | --- |
| ++ (++ is 30-60%) | Cc1cccc(C)c1-c1cc2nc(n1)NS(=O)(=O)c1cccc(c1)C(=O)N1[C@@H](c3ncc(OC(C)C)cn3)CCC[C@@H](CC(C)C)[C@H]1CO2 (single isomer, unassigned) [Compound 395, 14-(2,6-dimethylphenyl)-8-isobutyl-4-(5-isopropoxypyrimidin-2-yl)-18,18-dioxo-11-oxa-18λ^6-thia-3,15,17,24-tetrazatetracyclo[17.3.1.112,16.03,9]tetracosa-1(22),12,14,16(24),19(23),20-hexaen-2-one] |
| + (+ is <30+) | Cc1cccc(C)c1-c1cc2nc(n1)NS(=O)(=O)c1cccc(c1)C(=O)N1[C@@H](c3ncc(OC(C)C)cn3)CCC[C@@H](CC(C)C)[C@H]1CO2 (single isomer, unassigned) [Compound 396, 14-(2,6-Dimethylphenyl)-8-isobutyl-4-(5-isopropoxypyrimidin-2-yl)-18,18-dioxo-11-oxa-18λ^6-thia-3,15,17,24-tetrazatetracyclo[17.3.1.112,16.03,9]tetracosa-1(22),12,14,16(24),19(23),20-hexaen-2-one] |
| +++ (+++ is >60%) | Cc1cccc(C)c1-c1cc2nc(n1)NS(=O)(=O)c1cccc(c1)C(=O)N1[C@@H](c3ncc(OC(C)C)cn3)CCC[C@@H](CC(C)C)[C@H]1CO2 (single isomer, unassigned) [Compound 397, 14-(2,6-dimethylphenyl)-8-isobutyl-4-(5-isopropoxypyrimidin-2-yl)-18,18-dioxo-11-oxa-18λ^6-thia-3,15,17,24-tetrazatetracyclo[17.3.1.112,16.03,9]tetracosa-1(22),12,14,16(24),19(23),20-hexaen-2-one] |
| +++ (+++ is >60%) | Cc1cccc(C)c1-c1cc2nc(n1)NS(=O)(=O)c1cccc(c1)C(=O)N1[C@@H](c3ncc(OC(C)C)cn3)CCC[C@@H](CC(C)C)[C@H]1CO2 (single isomer, unassigned) [Compound 398, 14-(2,6-Dimethylphenyl)-8-isobutyl-4-(5-isopropoxypyrimidin-2-yl)-18,18-dioxo-11-oxa-18λ^6-thia-3,15,17,24-tetrazatetracyclo[17.3.1.112,16.03,9]tetracosa-1(22),12,14,16(24),19(23),20-hexaen-2-one] |
